The record followed here is patent publication US9115061B2, “Naphthalene-based inhibitors of anti-apoptotic proteins” (BURNHAM INSTITUTE FOR MEDICAL RESEARCH, priority 2007, dated 2015).

Data set [1] concerns the target T1, BCL-XL (Homo sapiens (Human), UniProt Q07817). The experiment in a line: 1D 1H-NMR binding assay. On 1D 1H-NMR Binding Assay (BCL-XL): key: +++: Very Active; ++: Active; +: Mild; −: Weak. The following applies: for 1D 1H-NMR Binding Assay (BCL-XL): 4-point-rating scale, compounds 200 μM, BCL-XL 25 μM. The procedure: By observing the aliphatic region of the spectra, binding could be readily detected due to chemical shift changes in active site methyl groups of Ile, Leu, Thr, Val or Ala (region between −0.8 and 0.3 ppm). All experiments were performed with a 600 MHz spectrometer Bruker Avance 600 equipped with four rf channels and z-axis pulse-field gradients.

Data set [2] has as its target GST-BCL-XL ΔTM protein (Homo sapiens (Human), UniProt Q07817). Description: Competitive fluorescence polarization assay (FITC-Bak BH3 peptide). The note with it: for EC50: Table 3, read-out: EC50 FPA BCL-XL. Type of data set: binding. The procedure:
For competitive binding assays, 100 nM GST-BCL-XL ΔTM protein was preincubated with the tested compound at varying concentrations in 47.5 μL PBS (pH=7.4) in 96-well black plates at room temperature for 10 min, then 2.5 μL of 100 nM FITC-labeled Bak BH3 peptide was added to produce a final volume of 50 μL. The wild-type and mutant Bak BH3 peptides were included in each assay plate as positive and negative controls, respectively.
IC50 was determined by fitting the experimental data to a sigmoidal dose-response nonlinear regression model (SigmaPlot 10.0.1, Systat Software, Inc., San Jose, Calif., USA). Data reported are mean of three independent experiments ±standard error (SE). […] Fluorescence polarization was measured after 10 min.
Background: Fluorescence polarisation rises when a labelled molecule tumbles more slowly, as on binding a larger partner.

The target of data set [3] is GST-BCL-2 (Homo sapiens (Human), UniProt P10415). Description: Fluorescence polarization assay (FITC-Bim BH3 peptide). Type of data set: binding. The note with it: for EC50: read-out: EC50 FPA BCL-2. The procedure:
After 30 min incubation at room temperature, the polarization values in millipolarization units were measured at excitation/emission wavelengths of 480/535 nm with a multilabel plate reader (PerkinElmer). IC50 was determined by fitting the experimental data to a sigmoidal dose-response nonlinear regression model (SigmaPlot 10.0.1, Systat Software, Inc., San Jose, Calif., USA). Data reported are mean of three independent experiments ±standard error (SE). Performance of BCL-2 and Mcl-1 FPA are similar. […] Fluorescence polarization was measured after 10 min.

In data set [4] the target is GST-Mcl-1 (Homo sapiens (Human), UniProt Q07820). Described as above. The class given is binding. The note with it: for EC50: read-out: EC50 FPA Mcl-1. The procedure:
After 30 min incubation at room temperature, the polarization values in millipolarization units were measured at excitation/emission wavelengths of 480/535 nm with a multilabel plate reader (PerkinElmer). IC50 was determined by fitting the experimental data to a sigmoidal dose-response nonlinear regression model (SigmaPlot 10.0.1, Systat Software, Inc., San Jose, Calif., USA). Data reported are mean of three independent experiments ±standard error (SE). […] Fluorescence polarization was measured after 10 min.

In data set [5] the target is T1, BCL-XL. The experiment in a line: Isothermal titration calorimetry (ITC). The class given is binding. The note with it: for Kd: 25° C., pH 7.4. The procedure:
Titrations were performed using a VP-ITC or ITC200 calorimeter from Microcal (Northampton, Mass.). BCL-XL was used at concentrations between 25 and 100 μM in 20 mM sodium phosphate buffer (pH 7.4) and 5-10% DMSO. Titrants were used at concentrations 10-15× of the protein in the same buffer. Titrations were carried out at 25° C. Data were analyzed using Microcal Origin software provided by the ITC manufacturer (Microcal, Northampton, Mass.).

The test system of data set [6] is H460 cell line. The experiment in a line: Cell viability, ATP-LITE assay. The class given is cell-based, human. The procedure: (§1) The activity of the compounds against human cancer cell lines (PC3ML, H460, H1299, RS11846) were assessed by using the ATP-LITE assay (PerkinElmer). All cells were seeded in either F12 or RPMI1640 medium with 5 mM L-glutamine supplemented with 5% fetal bovine serum (Mediatech Inc.), penicillin and streptomycin (Omega). For maintenance, cells were cultured in 5% FBS. Cells plated into 96 well plates at varying initial densities depending on doubling time. H460 and H1299 plated at 2000 cells/well, A549 and PC3 at 3000 cells/well, and RS118456S at 10,000 cells/well. Compounds were diluted to final concentrations with 0.1% DMSO. Prior to dispensing compounds onto cells, fresh 5% media was placed into wells. Administration of compounds occurred 24 hours after seeding into the fresh media. Cell viability was evaluated using ATP-LITE reagent (PerkinElmer) after 72 hours of treatment. Data were normalized to the DMSO control-treated cells using Prism version 5.01 (Graphpad Software).

Data set [7] relates to PC3ML cells. The experiment in a line: Cell viability, ATP-LITE assay. The class given is cell-based, human. The procedure:
as §1

Data set [8] has as its system RS11846 cell line. Description: Apoptosis, Annexin V and propidium iodide assay. The class given is cell-based, human. The following applies: 1-2 days; read-out: RS11846 EC50 (Annexin V- and propidium iodide assay).
Procedure: The apoptotic activity of the compounds against RS11846 cells was assessed by staining with Annexin V- and propidium iodide (PI). Lymphoma cell line, RS11846, was cultured in RPMI 1640 medium (Mediatech Inc., Herndon, Va. 20171) containing 10% fetal bovine serum (Mediatech Inc., Herndon, Va. 20171) and Penicillin/Streptomycin (Mediatech Inc., Herndon, Va. 20171). […] The percentage of viable cells was determined by FITC-Annexin V- and propidium iodide (PI)-labeling, using an Apoptosis Detection kit (BioVision Inc.), and analyzing stained cells by flow cytometry (FACSort; Bectin-Dickinson, Inc.; Mountain View, Calif.). Cells that were annexin-V-negative and PI-negative were considered viable.
Data set [9] can be described thus: Plasma stability. The note with it: for Plasma Stability (T = 1 hr): rat plasma, 37.5° C. Type of data set: in vitro ADME, rat. The procedure: A 20 μL aliquot of a 10 mM solution in DMSO of the test compound was added to […] of heparinized rat plasma (Lampire, P1-150N) to obtain a 100 μM final solution. The mixture was incubated for 1 h at 37.5° C. Aliquots of 100 μL were taken (0, 30 min, 1 h) and diluted with 200 μL of MeOH containing internal standard.

The subject of data set [10] is B6BCL2 mouse. The experiment in a line: Spleen weight in B6BCL2 transgenic mice after intraperitoneal injection. Type of data set: in vivo. The procedure: Transgenic mice expressing BCL-2 have been described as the B6 line. The BCL-2 transgene represents a minigene version of a t(14;18) translocation in which the human BCL-2 gene is fused with the immunoglobulin heavy-chain (IgH) locus and associated IgH enhancer. The transgene was propagated on the Balb/c background.
After 24 hours, B6BCL2 mice were sacrificed by intraperitoneal injection of lethal dose of Avertin. Spleen was removed and weighed. […] Spleen tissue was fixed in z-FIX for 3 days and rinsed in PBS, and saved for histological analysis of spleen (H&E staining and TUNEL assay).

The nature of data set [11]: Liver microsomal stability. The following applies: rat liver microsomes, 4 μM, 60 min. Background: Liver microsomes are a subcellular fraction often used to study metabolism.
Procedure: Pooled rat liver microsomes (BD Biosciences, #452701) were preincubated with test compounds at 37.5° C. for 5 min in the absence of NADPH. The reaction was initiated by addition of NADPH and then incubated under the same conditions. […] One aliquot (100 μL) of the incubation mixture was withdrawn at 0, 15, 30, and 60 min and combined immediately with 200 μL of ACN/MeOH containing an internal standard. After mixing, the sample was centrifuged at approximately 13,000 rpm for 12 min. The supernatant was transferred into an autosampler vial and the amount of test compound was quantified using the Shimadzu LCMS 2010EV mass spectrometer. The change of the AUC (area under the curve) of the parent compound as function of time was used as a measure of microsomal stability.
Data set [12] is described as follows: PAMPA (parallel artificial membrane permeation assay). The following applies: for Cell Permeability: PAMPA, pH 7.2, 8 h. In general terms: PAMPA measures passive passage across an artificial lipid membrane.
Procedure: PAMPA is parallel artificial membrane permeation assay. A 96-well microtiter plate (Millipore, # MSSACCEPTOR) was completely filled with aqueous buffer solution (pH 7.2) and covered with a microtiter filterplate (Millipore, # MAPBMN310). The hydrophobic filter material was impregnated with a 10% solution of hexadecane in hexane and the organic solvent was allowed to completely evaporate. Permeation studies were started by the transfer of 200 μL of a 100 μM test compound solution on top of the filterplate. In general phosphate buffer at pH 7.2 buffer was used. The maximum DMSO content of the stock solutions was <5%. In parallel, an equilibrium solution lacking a membrane was prepared using the exact concentrations and specifications but lacking the membrane. The concentrations of the acceptor and equilibrium solutions were determined using the Shimadzu LCMS-2010EV and AUC methods. The permeation of a compound through the membrane layer is described by the percentage permeation (% flux). The flux values were calculated considering the concentration of the acceptor compartment after 8 h and that of a reference well with the same concentration containing no membrane barrier.

Sequence of GST-BCL-XL ΔTM protein (Q07817 1-209): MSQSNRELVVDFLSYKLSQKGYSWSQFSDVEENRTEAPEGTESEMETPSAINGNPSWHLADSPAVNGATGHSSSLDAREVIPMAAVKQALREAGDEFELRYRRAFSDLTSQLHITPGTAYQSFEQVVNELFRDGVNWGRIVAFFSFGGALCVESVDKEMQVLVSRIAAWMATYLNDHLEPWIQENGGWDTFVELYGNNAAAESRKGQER
Sequence of GST-Mcl-1 (Q07820 whole entry): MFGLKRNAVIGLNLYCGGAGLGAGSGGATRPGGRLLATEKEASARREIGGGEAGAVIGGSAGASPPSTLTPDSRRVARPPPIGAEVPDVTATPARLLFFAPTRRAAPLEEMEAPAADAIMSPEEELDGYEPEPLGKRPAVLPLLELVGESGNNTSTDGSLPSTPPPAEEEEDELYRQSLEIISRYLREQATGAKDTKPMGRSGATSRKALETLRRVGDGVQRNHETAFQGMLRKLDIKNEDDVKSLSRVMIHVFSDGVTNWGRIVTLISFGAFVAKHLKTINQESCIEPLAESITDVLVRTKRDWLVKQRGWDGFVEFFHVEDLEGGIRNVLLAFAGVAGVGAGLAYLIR
T1 sequence (Q07817 whole entry): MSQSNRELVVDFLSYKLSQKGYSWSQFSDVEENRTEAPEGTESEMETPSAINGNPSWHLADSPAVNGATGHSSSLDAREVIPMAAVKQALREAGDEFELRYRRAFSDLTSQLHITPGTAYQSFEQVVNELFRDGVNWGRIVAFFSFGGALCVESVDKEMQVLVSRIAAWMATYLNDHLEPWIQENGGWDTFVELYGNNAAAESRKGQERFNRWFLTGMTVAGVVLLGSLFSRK
Sequence of GST-BCL-2 (P10415 whole entry): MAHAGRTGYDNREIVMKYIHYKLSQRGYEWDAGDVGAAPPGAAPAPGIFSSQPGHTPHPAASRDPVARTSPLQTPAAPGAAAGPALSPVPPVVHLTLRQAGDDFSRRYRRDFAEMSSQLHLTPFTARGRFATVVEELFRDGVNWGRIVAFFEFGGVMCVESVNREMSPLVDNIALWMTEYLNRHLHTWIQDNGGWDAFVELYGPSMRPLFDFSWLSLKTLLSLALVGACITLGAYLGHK

As usually defined, the EC50 is the concentration giving half of the maximal effect. The term Kd denotes the constant that tells how readily two partners part at equilibrium. A lower Kd goes with higher affinity. Turning to `Cc1cc2c(C(=O)Cc3ccccc3)c(O)c(O)cc2c(O)c1-c1c(C)cc2c(C(=O)Cc3ccccc3)c(O)c(O)cc2c1O` [Compound I, 1,1′-(1,1′,6,6′,7,7′-hexahydroxy-3,3′-dimethyl-2,2′-binaphthyl-5,5′-diyl)bis(2-phenylethanone)], the “chemical shift changes in active site methyl groups of BCL-XL” value in [1] (1D 1H-NMR spectra) is given as “significant chemical shift changes”. For the same compound, the “1D 1H-NMR Binding Assay (BCL-XL)” value in data set [1] is on record as “+++”. In addition, in data set [2], the “times more effective than apogossypol, FP displacement BCL-XL” value was approximately 20 times and the EC50 amounted to 0.19 µM. Further, in data set [3], the “fold more potent than apogossypol, BCL-2 FPA” value was “approximately 8 fold” and the 50% effective concentration (EC50) was found to be 0.36 µM. Further, in data set [4], the “fold more potent than apogossypol, Mcl-1 FPA” value is recorded as approximately 5 fold and the half-maximal effective concentration (EC50) was determined as 0.52 µM. Also, in [5], the “times more potent than apogossypol, Kd ITC BCL-XL” value is on record as 10 times and the affinity, expressed as Kd, was 0.17 µM. Moreover, the “times more potent than apogossypol, H460 EC50” value in [6] was 4-5 times. Moreover, in data set [7], the “fold more potent than apogossypol, PC3ML EC50” value was 2-5 fold. Also, the EC50 in data set [8] came out at 4.9 µM. For the same compound, the “degraded after 1 hour incubation in rat plasma” value in data set [9] (1 hour) stood at 15%. In addition, the “Plasma Stability (T = 1 hr)” value in [9] is 85%. In [10] (mouse, in vivo), the macroscopic toxicity entry is recorded as “no macroscopic toxicity”. Further, in [10] (single BCL-2 transgenic mouse, 60 μmol/kg, intraperitoneal, 24 hours), the “reduction in spleen weight, single mouse” value worked out at 40%. Moreover, the “reduction of spleen weight, groups of six mice” value in data set [10] (six mice, P<0.0001 vs control) is approximately 40%. Moreover, the “Microsomal Stability (T = 1 hr)” value in data set [11] is on record as 64%. Further, in [12], the “cell membrane permeability compared to apogossypol” value was “improved” and the “Cell Permeability” value is “Medium”.

As to `Cc1cc2c(C(=O)c3cccc4ccccc34)c(O)c(O)cc2c(O)c1-c1c(C)cc2c(C(=O)c3cccc4ccccc34)c(O)c(O)cc2c1O` [Compound VIII, (1,1′,6,6′,7,7′-hexahydroxy-3,3′-dimethyl-2,2′-binaphthyl-5,5′-diyl)bis(naphthalen-1-ylmethanone)], in data set [1], the “1D 1H-NMR Binding Assay (BCL-XL)” value is “+”. For the same compound, the EC50 in [2] was 0.16 µM; in [3] it was 1.9 µM; in [4], 2.2 µM; in data set [8], 4.2 µM. In data set [5], this compound registered a dissociation constant Kd of 2.75 µM. Further, the “Plasma Stability (T = 1 hr)” value in data set [9] is recorded as 62%. Further, the “Microsomal Stability (T = 1 hr)” value in data set [11] worked out at 52%. In data set [12], the “Cell Permeability” value is recorded as “Low”.
